Source: patent publication US20220313780A1, “METHODS AND COMPOSITIONS FOR TREATING INFLAMMATORY CONDITIONS” (THE SCRIPPS RESEARCH INSTITUTE, priority 2019, published 2022)
Entries after “also recorded” stand apart in the source; their conditions may differ.

Test system: caspase 1
Assay: Caspase 1 activity assay in PMA-differentiated THP1 cells treated with LPS and ATP
Assay type: cell-based, human
Settings: for caspase 1 activity: peptide 50 μM for 60 min before LPS (1 μg/mL) and ATP (5 mM), THP1 cells
Protocol: THP1-null (THP1) cells were plated at a final concentration of 1×10^6/mL in 96 well plates and incubated with PMA (0.5 μM) for 3 hours 37° C. in supplemented RPMI. Media was subsequently changed every 24 hours for 3 days. Various subsets of wells were selected and cells were treated for 60 minutes at 37° C. in serum-free RPMI with: (A) APC (4 μg/mL), TR47 (50 μM-2 nM), scrTR47 (50 μM), SFLLRN (50 μM), TFLLRN (50 μM); (B) P3R (50 μM-500 nM), P3K (50 μM); (C) APC (4 or 1 μg/mL), TR47 (8 nM), P3R (500 nM) or TR47+P3R (8 nM and 500 nM, respectively); (D) TR47 (0-128 nM) (●)±P3R (500 nM) (□); (E) P3R (0-500 nM) (●)±TR47 (1 nM) (□). Following DPBS wash, cells were incubated with LPS (1 μg/mL) for 3 hours at 37° C. in serum-free RPMI. After a DPBS wash, cells were incubated with ATP (5 mM) in the presence or absence of 10 μM YVAD (caspase 1 inhibitor) or 2.5 μM ZVAD (pan-caspase inhibitor) for 45 minutes at 37° C., prior to performing the caspase 1 activity assay following manufacturer's directions measuring luminescence (relative luminescent units, RLU). (D & E) Experimental caspase 1 activity was normalized to YVAD (caspase 1 inhibitor) luminescence units. (A-E) Data points represent mean±S.D. of at least 3 independent experiments. *P<0.05 (vs. LPS+ATP); #P<0.05 (vs. LPS+ATP & APC, TR47 or P3R); **P<0.005 (vs. LPS+ATP & TR47+500 nM P3R); n.s. not significant.
THP1 cells were plated at a final concentration of 1×10^6/mL in 96 well plates and incubated with PMA (0.5 μM) for 3 hours 37° C. in supplemented RPMI. Media was subsequently changed every 24 hours for 3 days. Selected wells were treated with APC (4 μg/mL), (A) 50 μM or (B) 2 μM of P3R, P3Rm, P3R 51-65, P3R 51-59, P3R 54-59 or P3R 59-65 for 1 hour, washed with DPBS, and incubated with LPS (1 μg/mL) for 3 hours at 37° C. in serum-free RPMI. Cells were washed with DPBS and incubated with ATP (5 mM) in the presence or absence of 10 μM YVAD (caspase 1 inhibitor; C1i) or 2.5 μM ZVAD (pan-caspase inhibitor; pCi) for 45 minutes at 37° C., prior to performing the caspase 1 activity assay following manufacturer's directions measuring luminescence (relative luminescent units, RLU). (C) Diagram showing the PAR3 sequence, peptide sequences and relative (anti-inflammatory) activity. These include sequences of P3R (SEQ ID NO:4), P3Rm (SEQ ID NO:8), P3R 51-65 (SEQ ID NO:9), P3R 51-59 (SEQ ID NO:10), P3R 54-59 (SEQ ID NO:54) and P3R 59-65 (SEQ ID NO:55).
THP1 cells were plated at a final concentration of 1×10^6/mL in 96 well plates and incubated with PMA (0.5 μM) for 3 hours 37° C. in supplemented RPMI. Media was subsequently changed every 24 hours for 3 days. Selected wells were treated with APC (4 μg/mL), TR47, in (A) 9-mer (TR47 9-mer; NPNDKYEPF (SEQ ID NO:36)) or Ac-TR47 (Acylated TR47) at either 50 μM or 10 nM or (B) 50 μM of 16-mer-TR47, 8-mer-TR47, 6-mer-TR47, TR47 N−1, TR47 N−2, TR47 N−5, TR47AQ, TR47AD, TR47AA or TR48-54 for 1 hour, washed with DPBS, and incubated with LPS (1 μg/mL) for 3 hours at 37° C. in serum-free RPMI. Cells were washed with DPBS and incubated with ATP (5 mM) in the presence or absence of 10 μM YVAD (caspase 1 inhibitor; C1i) or 2.5 μM ZVAD (pan-caspase inhibitor; pCi) for 45 minutes at 37° C., prior to performing the caspase 1 activity assay following manufacturer's directions measuring luminescence (relative luminescent units, RLU). #P<0.001 (vs. LPS+ATP), **P<0.005 (vs. LPS+ATP), * (P<0.05 vs. LPS+ATP). (C) Diagram showing the PAR1 sequence, peptide sequences and relative (anti-inflammatory) activity. These include sequences of TR47 (SEQ ID NO:7), Ac-TR47 (SEQ ID NO:56), 16-mer-TR47 (SEQ ID NO:43), 9-mer-TR47 (SEQ ID NO:36), 8-mer-TR47 (SEQ ID NO:35), 6-mer-TR47 (SEQ ID NO:33), TR47 N−1 (SEQ ID NO:47), TR47 N−2 (SEQ ID NO:51), TR47 N−5 (SEQ ID NO:48), TR47AQ (SEQ ID NO:49), TR47AD (SEQ ID NO:52), TR47AA (SEQ ID NO:50) and TR48-54 (SEQ ID NO:53). […]

Row | Sequence | normalized caspase 1 activity (P3R at ≤500 nM with 1 nM TR47) | caspase 1 activity | caspase 1 activity normalized to caspase 1 inhibited conditions (TR47 at <10 nM in the presence of 500 nM P3R)
1 | GAPPNSFEEFPFSALEGWTGATIT [P3R, PAR3-derived 24-mer peptide] | a significant reduction in normalized caspase 1 activity was observed | reduced caspase 1 activity; also recorded: a significant reduction in caspase 1 activity was observed | 
2 | NPNDKYEPFWEDEEKNESGL [TR47, PAR1-derived 20 amino acid peptide] |  | similarly reduced caspase 1 activity | a reduction in caspase 1 activity was observed
